# Reference: US11548894B2, “Benzamide or benzamine compounds useful as anticancer agents for the treatment of human cancers” (The Board of Regents of the University of Texas System, priority 2015, dated 2023)
# Columns and labels:
# Mut6 cells (TD-NSC) = test: luminescence-based Celltiter-Glo cell viability assay (ATP levels) on Mut6 tumor derived neuronal stem cells; parameters: species or system mouse
# Outline: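 Primary tumor-derived neural stem cells from pooled Mut6 (p53/Pten/Nf1 conditional knockout) GBM tumors, serum-free with defined growth factors. Compound exposure 96 h at 37° C., 5% oxygen; viability by CellTiter-Glo ATP luminescence with cell-free background wells, giving IC50 curves.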
# Normal astrocytes = test: ATP viability of normal astrocytes treated with increasing concentrations; assay type: cell-based, mouse; details: increasing concentrations (FIG. 7A)
# Description: (§1) A luminescence-based Celltiter-Glo® assay was performed to measure cell viability, using ATP levels as the readout. In brief, opaque-walled multiwell plates with Mut6 cells in culture medium (25 μl per well, 384-well plates) were prepared. Control wells containing medium without cells were prepared to obtain a value for background luminescence. Test compounds were added to experimental wells, and incubated according to culture protocol. The plate and its contents were incubated at 37° C., 5% […] for 96 hours. An ATP standard curve was generated immediately prior to adding the CellTiter-Glo® Reagent. A volume of CellTiter-Glo® Reagent equal to the volume of cell culture medium present in each well (25 μl of reagent to 25 μl of medium containing cells for a 384-well plate) was added. The contents were mixed for 2 minutes on an orbital shaker to induce cell lysis. The plate was allowed to incubate at room temperature for 10 minutes to stabilize the luminescent signal and luminescence recorded. (e.g. GloMax®, Lumistar, SPECTROstar, PHERAstar FS).
# (§2) Normal astrocytes, Mut6 cells and mouse embryonic fibroblasts were treated with increasing concentrations of compound 4C12. […] Normal astrocytes and MEFs were unaffected by compound 4C12.
# [1] = test system: mouse embryonic fibroblasts (MEFs); test: ATP viability of mouse embryonic fibroblasts treated with increasing concentrations; assay type: cell-based; details: increasing concentrations (FIG. 7A)
# Description: as §1, §2
# Mut6 cells [2] = test: cell-based wash-out time course with ATP assay at 96 hours (FIG. 8); parameters: species or system mouse
# Description: FIGS. 8A-B comprising FIG. 8A and FIG. 8B show the identification of molecular changes between 6 hr and 24 hr time points. […] Cells were plated 48 hours before treatment with test compounds Compound 1, Compound 2 and 4C12, and a negative control. Cultures then were treated with the test compound. The media was removed and cells washed twice. Fresh media was added without compound. Data points were 6 hr, 22 hr, 33 hr, 51 hr, 71 hr and continuous. Molecular changes were identified between the 6 hr and 24 hr time points. An ATP assay was performed at 96 hours. On day 2, Cells treated with 4C12 were round-shaped. […] On day 4, 10-20% of the cells were apoptotic. By day 5, 80-90% of the cells were apoptotic.
# [3] = test system: cholesterol biosynthesis pathway (Srebp2 target genes); test: microarray and mRNA levels of cholesterol synthesis genes in Mut6 cells; assay type: cell-based, mouse
# Description: Microarray analysis was conducted to identify overrepresented pathways associated with treatment with compound 4C12 for 48 hr.
# (§3) FIG. 12A is a bar graph showing cholesterol (pg/cell), and triglyceride (pg/cell) levels in Mut6 cells treated with compound 4C12 for 24 hours and 48 hours, versus a negative control (vehicle only). […] Mut6 cells were treated with compound 4C12 for 24 hours and then mRNA levels for Hydroxymethylglutaryl-CoA synthase(Hmgcs); 3-hydroxy-3-methylglutaryl-coenzyme A reductase (Hmgcr); acetoacetyl-CoA synthetase (AACS); Delta(24)-sterol reductase (Dhcr24); 7-dehydrocholesterol reductase (Dhcr7), Sterol C5-desaturase (Sc5d); Squalene synthase (SS); and farnesyl pyrophosphate (FPP) synthase (FPPS) were determined.
# (§4) In FIG. 13(a)-(e) Mut6 cells were treated with compound 4C12 for 2, 9, 16, 24, and 48 hr, respectively, and their cholesterol gene profile compared to a DMSO control. […] (f) Western blot. Mut6 cells were treated with vehicle only (−) or with compound 4C12 (+) for 7 hr, 13 hr and 23 hr. Cells were collected, lysed in SDS buffer, subjected to SDS PAGE, and cell proteins transferred to a membrane by a standard protocol.
# Mut6 cells [4] = test: cholesterol and triglyceride level (pg/cell) in treated cells; assay type: cell-based, mouse
# Description: as §3
# FIG. 17 compares cholesterol level (pg/cell) (Left) and triglyceride level (pg/cell) (Right) in Mut6 cells and in MEF cells treated with compound 4C12 for 24 hours and 48 hours to a negative control (vehicle).
# SREBP2 = test: Western blot of SREBP proteins in Mut6 cells; assay type: cell-based, mouse; details: 7 hr, 13 hr and 23 hr
# Description: as §4
# [5] = test system: Srebp2 target genes in MEFs; test: relative mRNA level of cholesterol biosynthesis pathway target genes in MEFs; assay type: cell-based, mouse; details: vs dmso (FIG. 16)
# Source text: (§5) FIG. 16 is a bar graph of relative mRNA level for cholesterol biosynthesis pathway target genes Hmgcs, Hmgcr, FPPS, LDLR; and SREBP1c in mouse embryo fibroblasts (left) and astrocytes (right) treated with compound 4C12 or dmso (negative control).
# [6] = test system: Srebp2 target genes in Astrocytes; test: relative mRNA level of cholesterol biosynthesis pathway target genes in astrocytes; assay type: cell-based, mouse; details: vs dmso (FIG. 16)
# Source text: as §5
# Srebp1 target genes = test: cholesterol gene profile in Mut6 cells, Srebp1 targets; assay type: cell-based, mouse; details: Mut6 cells, 2, 9, 16, 24 and 48 hr vs DMSO
# Description: as §4
# [7] = Mut6 cells, 24 hours and 48 hours
structure (smiles),measurement,setting,value
"CCN1CCCC1CNC(=O)c1ccc(Sc2ccc(F)cc2)c([N+](=O)[O-])c1 (stereo not drawn) [4C12, N-((1-ethylpyrrolidin-2-yl)methyl)-4-((4-fluorophenyl)thio)-3-nitrobenzamide]",EC50,"Mut6 cells (TD-NSC); Mus musculus, relative ATP activity versus concentration (FIG. 7A), read-out: ED50 against Mut6 cells",50 nM
same,compound-induced cell-death with addition of cholesterol,Mut6 cells (TD-NSC); Mut6 cells (FIG. 15(b)),inhibits
same,sensitivity after knock-down of Insig1/Insig2,Mut6 cells (TD-NSC); Mut6 cells (FIG. 15(c)),less sensitive
same,live cells (%),Mut6 cells (TD-NSC); Mut6 tumor cells viable after 96 hours (FIG. 7C),50%
same,effect on viability of normal astrocytes,Normal astrocytes,unaffected
same,effect on viability of MEFs,[1],unaffected
same,cell shape,Mut6 cells [2]; day 2,round-shaped
same,cell cycle state,Mut6 cells [2]; day 3,arrested in G2
same,apoptotic cells,Mut6 cells [2]; day 4,10-20%
same,apoptotic cells,Mut6 cells [2]; day 5,80-90%
same,relative ATP activity versus time,Mut6 cells [2]; relative to the control (FIG. 8B),reduced ATP activity as a function of time
same,effect on Srebp2 target genes,"[3]; Mut6 cells, 2, 9, 16, 24 and 48 hr vs DMSO",inhibits Srebp2 target genes
same,relative mRNA of genes for cholesterol synthesis enzymes,"[3]; Mut6 cells, 24 hours",down-regulated
same,overrepresented pathways by microarray,[3]; treatment for 48 hr,deregulates the cholesterol biosynthesis pathway
same,specificity of cholesterol decrease,"Mut6 cells [4]; Mut6 cells vs MEF cells, 24 and 48 hours (FIG. 17)",specific to Mut6 tumor cells
same,cholesterol (pg/cell),Mut6 cells [4]; [7],decreases
same,triglyceride (pg/cell),Mut6 cells [4]; [7],increases
same,SREBP2 protein (Western blot),SREBP2,effective to decrease SREBP2 protein
same,Srebp2 target genes mRNA in MEFs,[5],not decreased
same,Srebp2 target genes mRNA in Astrocytes,[6],not decreased
same,effect on Srebp1 target genes,Srebp1 target genes,not Srebp1 target genes
